Experiment [1] has as its target T1, Glycogen synthase kinase-3 beta (Homo sapiens, UniProt P49841). The experiment can be described thus: Inhibition of GSK-3beta (unknown origin).
The nature of experiment [2]: Inhibition of GSK-3beta (unknown origin) using GS-1 as substrate incubated for 20 mins.
A further experiment concerns the target Protein kinase C (PKC). As to the kind of experiment: Inhibition of rat brain PKC using peptide PANKTPPKSPGEPAK as substrate incubated for 20 mins in presence of phosphatidyl serine.
The nature of experiment [3]: Inhibition of bovine heart PKA using stathmin as substrate incubated for 20 mins by liquid scintillation counter analysis. On the set-up: species or system Bos taurus.
Experiment [4] can be described thus: Inhibition of CDK-1/cyclin B (unknown origin) using histone H1 as substrate incubated for 20 mins by liquid scintillation counter analysis. Further details: species or system Homo sapiens.
Experiment [5] is described as follows: Inhibition of bovine brain CK2 using stathmin as substrate. Further details: species or system Bos taurus.
Experiment [6] deals with T1, Glycogen synthase kinase-3 beta. The experiment can be described thus: Inhibition of GSK3-beta (unknown origin) by Kinase-Glo Max assay kit.
Experiment [7] has the same target. As to the kind of experiment: Inhibition of GSK-3beta (unknown origin) using biotin-labelled IRS-1 peptide as substrate incubated for 15 mins by ELISA based assay. Background: In an ELISA, binding on a coated surface is turned into a signal by an enzyme label.
For experiment [8] the target is unchanged. The experiment can be described thus: Inhibition of GSK-3beta (unknown origin) using peptide YRRAAVPPSPSLSRHSSPHQ(pS)EDEEE as substrate incubated for 5 to 60 mins by ADP-Glo kinase assay. In general terms: ADP-Glo turns the ADP formed in a reaction into a luminescent signal.
The next experiment concerns SH-SY5Y. As to the kind of experiment: Neuroprotective activity against human SH-SY5Y cells pretreated for 1 hr followed by muMAbeta42 measured after 72 hrs. It is filed as functional, cell-based.
Experiment [9] in a line: Inhibition of recombinant rabbit GSK-3beta using peptide YRRAAVPPSPSLSRHSSPHQ(pS)EDEEE as substrate incubated for 10 mins. Further details: species or system Oryctolagus cuniculus.
Experiment [10] deals with T1, Glycogen synthase kinase-3 beta. As to the kind of experiment: Inhibition of human recombinant GSK3-beta.

This passage reports IC50 and EC50 results from ChEMBL document CHEMBL5126545, “Development of inhibitors targeting glycogen synthase kinase-3β for human diseases: Strategies to improve selectivity” (Eur J Med Chem, 2022).

SMILES strings stand for the structures. *1 amine or outer side, *2 acyl side, *3 side chain or, on linkers, in order; H or OH if unused. Where a SMILES comes first, the peptide text is derived from it. [ ]: non-standard residue; d: D form. The star is where a group is joined. X1 = C[C@H](N[*:1])C(=O)C1CCC[C@H]1C(=O)[*:2]; Myristoyl = CCCCCCCCCCCCCC(=O)*

T1 sequence (P49841 whole entry): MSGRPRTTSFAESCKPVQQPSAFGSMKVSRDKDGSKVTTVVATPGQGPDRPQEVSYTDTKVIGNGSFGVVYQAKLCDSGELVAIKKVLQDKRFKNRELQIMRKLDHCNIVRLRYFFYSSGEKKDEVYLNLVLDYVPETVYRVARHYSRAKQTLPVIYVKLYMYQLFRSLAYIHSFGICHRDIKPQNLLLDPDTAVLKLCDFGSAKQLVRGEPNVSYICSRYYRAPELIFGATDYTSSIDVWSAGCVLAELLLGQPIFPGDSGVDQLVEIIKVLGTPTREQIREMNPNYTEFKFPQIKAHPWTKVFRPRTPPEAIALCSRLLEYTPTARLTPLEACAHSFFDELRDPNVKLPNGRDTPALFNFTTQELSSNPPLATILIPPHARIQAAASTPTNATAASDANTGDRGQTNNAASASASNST

Broadly, the IC50 is the concentration that gives 50% inhibition. Molecule `Cc1ccc(C(=O)CCl)s1` returned an IC50 in experiment [1] above 100 µM.

On to `CCn1sc(=O)n(CC)c1=O`, for which it took 25 µM to reach half-maximal inhibition in experiment [2] (IC50).

`CCn1sc(=O)n(CC)c1=S` had an IC50 in [2] of 20 µM.

The molecule `Cn1sc(=O)n(-c2cccc3ccccc23)c1=O` displayed an IC50 in experiment [2] of 3 µM.

Turning to `Cn1sc(=O)n(Cc2ccccc2)c1=O`, the IC50 (on Protein kinase C (PKC); in [3]; in experiment [4]; in experiment [5]) was above 100 µM in each case.

In turn, `O=C(CCl)c1cc(Cl)c(Cl)s1` yielded an IC50 in experiment [1] of 3 µM.

In turn, `FC(F)(F)c1ccc(/C=N/Nc2nnc3n2N=C(c2ccc(Cl)cc2)CS3)cc1` showed an IC50 in experiment [6] of 0.883 µM.

`O=C(O)CCNc1cc(N2CCN(c3ccc(F)cc3)CC2)c2noc3c2c1C(=O)c1ccccc1-3` registered an IC50 in experiment [7] of 8 µM.

Turning to `Cn1cc(C2=C(c3coc4ccccc34)C(=O)NC2=O)c2cc(F)ccc21`, half-maximal inhibition in [1] (IC50) required 0.0004 µM.

The molecule `O=C1c2ccccc2-c2onc3c(N4CCN(c5ccc(O)cc5)CC4)cc(NCCP(=O)(O)O)c1c23` had an IC50 in experiment [7] of 1 µM.

For `CN(c1ncnc2[nH]c3cc(Cl)ccc3c12)C1CCCN(C(=O)CC#N)C1` (centres undefined), half-maximal inhibition in experiment [1] (IC50) required 2 µM.

The molecule `O=C(O)c1ccc(N2CCN(c3cc(NCCP(=O)(O)O)c4c5c(onc35)-c3ccccc3C4=O)CC2)cc1` yielded a concentration for half-maximal inhibition (IC50) in experiment [7] of 1 µM.

For the molecule `COc1ccc(-c2cc(=O)c3c(OC)c([C@@H]4O[C@H](C(=O)N[C@@H](C)C(F)(F)F)[C@@H](O)[C@H](O)[C@H]4O)c(OC)cc3o2)cc1OC`, the IC50 in [8] was determined as 2 µM.

`CC(C)Oc1cccc(-c2ccc3cnc(C(=O)NCC4CCOCC4)n3c2)c1` yielded an IC50 in experiment [1] of 0.072 µM.

One may read the EC50 as the concentration that produces a half-maximal response. For `COc1ccc(-c2cc(=O)c3c(OC)c([C@@H]4O[C@H](C(=O)N[C@H](C)C(F)(F)F)[C@@H](O)[C@H](O)[C@H]4O)c(OC)cc3o2)cc1OC`, the EC50 with SH-SY5Y came to 9 µM. In experiment [8], the IC50 was 0.6 µM.

`Nc1nccc(CNC(=O)c2ccc3c(c2)/C(=C/Cc2cccc(C(=O)O)c2)C(=O)N3)n1` yielded an IC50 in [1] of 0.003 µM.

In experiment [8], `COc1ccc(-c2cc(=O)c3c(OC)c([C@@H]4O[C@H](C(=O)NC(C)C)[C@@H](O)[C@H](O)[C@H]4O)c(OC)cc3o2)cc1OC` gave an IC50 of 5 µM.

In turn, `COc1ccc(-c2cc(=O)c3c(OC)c([C@@H]4O[C@H](C(=O)NCc5ccccc5)[C@@H](O)[C@H](O)[C@H]4O)c(OC)cc3o2)cc1OC` gave a half-maximal inhibitory concentration (IC50) in experiment [8] of 16 µM.

With `COc1ccc(N2CCN(c3cc(NCCC(=O)O)c4c5c(onc35)-c3ccccc3C4=O)CC2)cc1`, the half-inhibitory concentration (IC50) in experiment [7] turned out to be 18 µM.

The molecule `CC(C)Oc1cccc(-c2ccc3[nH]nc(C(=O)NCC4CCOCC4)c3c2)c1` had an IC50 in [1] of 0.004 µM.

The molecule `C[S+]([O-])CCCCCCN=C=S` (centres undefined) registered an IC50 in [1] of 70 µM.

As for `CCCCCCCCCCCCCC(=O)NCC(=O)N[C@@H](CCCCN)C(=O)N[C@@H](CCC(=O)O)C(=O)N[C@@H](C)C(=O)C1CCC[C@H]1C(=O)N1CCC[C@H]1C(=O)N[C@@H](C)C(=O)N1CCC[C@H]1C(=O)N1CCC[C@H]1C(=O)N[C@@H](C)C(=O)N[C@@H](CO)C(=O)N1CCC[C@H]1C(=O)N1CCC[C@H]1C(N)=O` (some centres undefined) (Myristoyl-GKE[X1]PAPPASPP-NH2), in experiment [9], the IC50 was 40 µM.

For `O=c1cc(-c2ccc(O)c(O)c2)oc2cc(O)c([C@@H]3O[C@H](CO)[C@@H](O)[C@H](O)[C@H]3O)c(O)c12` [ISOORIENTIN], the EC50 in the experiment on SH-SY5Y amounted to 47 µM.

Regarding `COc1cc2c(c(OC)c1OC)-c1c(cc3c(c1OC)OCO3)C[C@@H](C)[C@@H](C)C2` [KADSURANIN], in experiment [10], the IC50 turned out to be 0.081 µM.

On to `COc1cc2c(c(OC)c1OC)-c1c(cc3c(c1OC)OCO3)C[C@H](C)[C@H](C)C2` [WUWEIZISU B], for which the IC50 in experiment [10] was 0.073 µM.
